In the first assay the target is T1, HCV NS3 helicase (Hepatitis C virus genotype 1b, UniProt P26663).
T1 construct: full-length NS3 (1-631), purified at Array BioPharma
T1 sequence (P26663 1027-1657): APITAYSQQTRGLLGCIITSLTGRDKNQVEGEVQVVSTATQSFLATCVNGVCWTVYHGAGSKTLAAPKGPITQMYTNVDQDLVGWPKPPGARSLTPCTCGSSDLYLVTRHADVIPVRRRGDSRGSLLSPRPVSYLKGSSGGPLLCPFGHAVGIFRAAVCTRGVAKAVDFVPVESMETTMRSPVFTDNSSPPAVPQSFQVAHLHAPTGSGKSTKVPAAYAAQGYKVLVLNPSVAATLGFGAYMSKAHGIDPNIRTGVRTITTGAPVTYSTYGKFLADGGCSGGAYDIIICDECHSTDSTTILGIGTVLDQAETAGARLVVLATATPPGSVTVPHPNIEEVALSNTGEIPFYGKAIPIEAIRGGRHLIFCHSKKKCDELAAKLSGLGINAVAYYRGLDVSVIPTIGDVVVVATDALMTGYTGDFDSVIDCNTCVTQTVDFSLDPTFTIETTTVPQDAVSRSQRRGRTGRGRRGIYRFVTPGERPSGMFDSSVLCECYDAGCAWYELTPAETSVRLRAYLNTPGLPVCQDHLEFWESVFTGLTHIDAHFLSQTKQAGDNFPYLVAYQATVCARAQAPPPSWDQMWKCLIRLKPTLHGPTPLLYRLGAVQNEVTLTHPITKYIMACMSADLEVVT
Description: HCV Helicase Prompt FRET Assay (Example A). The note with it: HCV NS3 helicase; tables do not say whether Example A or Example B assay; read-out: IC50 Activity. Format: biochemical. Summed up: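 Full-length NS3 (1-631), 5 or 6 nM, preincubated 5 min with compound, then unwinds 50 nM FAM/BHQ-1 duplex substrate with 250 nM capture strand and 300 μM ATP in 25 mM MOPS pH 7.0, 1.5 mM MgCl2, 0.005% Triton X-100, 2% DMSO. Fluorescence (485/535 nm) followed ~30 min at room temperature; IC50 from initial rates by 4- or 5-parameter fit.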
A word on the IC50: it is the concentration at which inhibition is half-maximal. Take `O=C(O)Cc1cn(Cc2cccc(-c3c[nH]nn3)c2)c2ccc(OCc3ccccc3)cc12` [Example 127]: the IC50 was in the range of 10 to 50 µM.

Turning to `CC(C)c1ccc(Cn2c(C(=O)NCc3ccc(Oc4ccccc4)cc3)c(CC(=O)O)c3cc(Br)ccc32)cc1` [Example 446], the IC50 is < 10 µM.

As to `Cc1cc([N+](=O)[O-])ccc1-n1cc(/C=C/C(=O)O)c2cc(/C=C/C(=O)O)cnc21` [Example 323], the IC50 is > 50 µM.

For the compound `O=C(O)Cc1c(C(=O)c2cccc(-c3cccc(Cl)c3Cl)c2)[nH]c2ccccc12` [Example 230], the IC50 was < 10 µM.

Turning to `c1ccc(-c2ccccc2Cn2cc(Cc3nnn[nH]3)c3ccccc32)cc1` [Example 203], the IC50 is < 10 µM.

Take `CC(C)c1ccc(Cn2c(C(=O)NCc3cccc(F)c3)c(CC(=O)O)c3ccccc32)cc1` [Example 453]: the IC50 is < 10 µM.

Take `COC(=O)C=Cc1cn(-c2ccc([N+](=O)[O-])cc2C)c2cnc(OCc3ccccc3)cc12` [Example 329]: the IC50 is > 50 µM.

In the case of `O=C(O)Cc1cn(Cc2cccc(Oc3ccc(Cl)c(Cl)c3)c2)c2ccccc12` [Example 486], the IC50 is < 10 µM.

Regarding `CC(C)c1ccc(Cn2cc(CC(=O)O)c3ccccc32)cc1` [Example 424], the IC50 lay within 10 to 50 µM.

Regarding `O=C(O)Cc1cn(-c2ccc([N+](=O)[O-])cc2[N+](=O)[O-])c2ncc(Br)cc12` [Example 337], the IC50 is 10 to 50 µM.

Take `CS(=O)(=O)c1ccc(-n2cc(CP(=O)(O)O)c3cc(Br)ccc32)cc1` [Example 314]: the IC50 fell in the range of 10 to 50 µM.

With `CC(C)c1cccc(-c2cccc(C(=O)c3oc4ccccc4c3CC(=O)O)c2)c1` [Example 245], the IC50 was < 10 µM.

For `CCOC(=O)c1ccc(Cn2cc(CC(=O)O)c3cc(OCc4ccccc4)ccc32)o1` [Example 128], the IC50 was 10 to 50 µM.

Regarding `O=C(O)c1cccc2c1c1ccccc1n2Cc1ccccc1` [Example 465], the IC50 is > 50 µM.

Regarding `COc1ccc(Oc2ccc(Cn3cc(CC(=O)O)c4ccccc43)cc2)cc1OC` [Example 511], the IC50 is < 10 µM.

For `COc1ccc2c(CC(=O)O)cn(Cc3csc4ccc(Cl)cc34)c2c1` [Example 345], the IC50 is 10 to 50 µM.

As for `CCOC(=O)c1c(CC(=O)O)c2cc(Br)ccc2n1Cc1ccc(C(C)C)cc1` [Example 427], the IC50 is 10 to 50 µM.

On to `O=C(O)Cc1c(Cc2cccc(-c3cc(Cl)cc(Cl)c3)c2)oc2ccccc12` [Example 310], for which the IC50 was < 10 µM.

As for `COc1ccccc1Oc1ccc(Cn2cc(CC(=O)O)c3ccccc32)cc1` [Example 500], the IC50 is < 10 µM.

Turning to `CC(C)c1ccc(Cn2c(C(=O)NC3CCN(C(=O)OC(C)(C)C)CC3)c(CC(=O)O)c3cc(Br)ccc32)cc1` [Example 436], the IC50 was < 10 µM.

For `O=C(O)Cc1c[nH]c2ncccc12` [Example 318], the IC50 was > 50 µM.

Consider `COC(=O)C(Cc1ccc(C(C)C)cc1)c1cn(-c2ccc([N+](=O)[O-])cc2C)c2ccc(Br)cc12` (stereo not shown) [Example 407], for which the IC50 was > 50 µM.

On to `CCOC(=O)Cc1cn(Cc2ccc(Oc3ccc(C(F)(F)F)cc3)cc2)c2ccccc12` [Example 516], for which the IC50 was in the range of 10 to 50 µM.

Consider `O=C(O)Cc1cn(Cc2cccc(Oc3cc(Cl)cc(Cl)c3)c2)c2ccccc12` [Example 487], for which the IC50 was < 10 µM.

Regarding `CC(C)c1ccc(Cn2c(C(=O)Nc3cccc(NS(C)(=O)=O)c3)c(CC(=O)O)c3ccccc32)cc1` [Example 462], the IC50 was < 10 µM.

For `O=C(NS(=O)(=O)C1CC1)c1cn(Cc2csc3ccc(Cl)cc23)c2ccccc12` [Example 196], the IC50 was 10 to 50 µM.

For the compound `O=C(O)Cc1c(C(=O)c2ccc(-c3ccccc3)cc2)[nH]c2ccc(Br)cc12` [Example 312], the IC50 was 10 to 50 µM.

Turning to `O=C(Cc1cn(Cc2cccc(OCc3ccccc3)c2)c2ccc(OCc3ccccc3)cc12)N1CCCCC1` [Example 188], the IC50 is 10 to 50 µM.

Regarding `COc1ccc(Oc2ccc(Cn3cc(CC(=O)O)c4ccccc43)cc2)cc1` [Example 501], the IC50 is < 10 µM.

In the case of `O=C(O)Cc1cn(Cc2cccc(Oc3cccc(Cl)c3)c2)c2ccccc12` [Example 476], the IC50 is < 10 µM.

In the case of `COc1cccc(-c2ccc(-n3cc(CC(=O)O)c4ccccc43)cc2)c1` [Example 144], the IC50 is < 10 µM.

As to `O=[N+]([O-])c1ccc(-n2cc(CP(=O)(O)O)c3cc(Br)ccc32)nc1` [Example 317], the IC50 was < 10 µM.

As to `Oc1cc(Cc2cn(Cc3csc4ccc(Cl)cc34)c3ccccc23)n[nH]1` [Example 213], the half-inhibitory concentration (IC50) was in the range of 10 to 50 µM.

In the case of `Cc1cc(NCc2ccccc2)ccc1-n1cc(CC(=O)O)c2ccccc21` [Example 173], the IC50 was 10 to 50 µM.

Consider `O=C(O)Cc1c(Cc2cccc(-c3cccc(Cl)c3Cl)c2)oc2ccccc12` [Example 307], for which the IC50 is < 10 µM.

For `COc1cccc(-c2cccc(C(=O)c3[nH]c4ccccc4c3CC(=O)O)c2)c1` [Example 229], the IC50 was in the range of 10 to 50 µM.

Consider `O=C(O)Cc1c(Cc2ccc(-c3ccccc3)cc2)oc2ccccc12` [Example 305], for which the IC50 was in the range of 10 to 50 µM.

On to `Cc1cc([N+](=O)[O-])ccc1Cc1cn(-c2ccc([N+](=O)[O-])cc2C)c2ccc(Br)cc12` [Example 399], for which the IC50 was in the range of 10 to 50 µM.

In the case of `O=C(O)Cc1c(Cc2ccc(-c3ccccc3Cl)cc2)[nH]c2ccc(Br)cc12` [Example 739], the IC50 is 10 to 50 µM.

As to `COc1cccc(N(C)c2cccc(Cn3cc(CC(=O)O)c4ccccc43)c2)c1` [Example 527], the IC50 is < 10 µM.

Regarding `O=C(O)Cc1cn(Cc2ccc(Oc3cc(F)ccc3F)cc2)c2ccccc12` [Example 586], the IC50 was < 10 µM.

`Cc1cc([N+](=O)[O-])ccc1-n1cc(C(Cc2ccc(C(C)C)cc2)C(=O)O)c2cc(Br)ccc21` (stereo not shown) [Example 408]: the IC50 lay in the range of 10 to 50 µM.

Consider `O=C(O)Cc1c(Cc2ccc(-c3ccccc3)cc2)n(CC2CC2)c2ccccc12` [Example 278], for which the IC50 was < 10 µM.

With `COc1ccc(-c2cccc(Cc3[nH]c4ccccc4c3CC(=O)O)c2)cc1` [Example 299], the half-maximal inhibitory concentration (IC50) was < 10 µM.

Take `CN(c1cccc(Cn2cc(CC(=O)O)c3ccccc32)c1)c1ccccc1Cl` [Example 523]: the IC50 is < 10 µM.

As for `CC(C)c1ccc(Cn2c(C(=O)NCCc3ccccn3)c(CC(=O)O)c3ccccc32)cc1` [Example 439], the IC50 lay within 10 to 50 µM.

Turning to `O=C(O)Cc1c(C(=O)Cc2ccc(F)cc2)n(Cc2ccccc2)c2ccccc12` [Example 259], the IC50 lay within 10 to 50 µM.

The assay is the same for the next values; noted with them: IC50 Activity, Table 38, compounds made using Scheme 56, Scheme 57 and Scheme 61.
Consider `CCOC(=O)Cc1cn(C(=O)c2csc3ccc(Cl)cc23)c2cc(-c3cc([N+](=O)[O-])cc([N+](=O)[O-])c3)ccc12` [Example 795], for which the IC50 was > 50 µM.

Still in this assay, the particulars now being: Table 21, compounds made using Scheme 28; read-out: IC50 Activity.
For the compound `CN(c1ccc(Cn2cc(CC(=O)O)c3ccccc32)cc1)c1cc(Cl)ccc1Cl` [Example 574], the IC50 was < 10 µM.

Consider `COc1ccc(N(C)c2ccc(Cn3cc(CC(=O)O)c4ccccc43)cc2)cc1` [Example 564], for which the IC50 is < 10 µM.

For the compound `CN(c1ccc(Cn2cc(CC(=O)O)c3ccccc32)cc1)c1c(Cl)cccc1Cl` [Example 576], the IC50 is < 10 µM.

As to `CN(c1ccc(Cn2cc(CC(=O)O)c3ccccc32)cc1)c1c(F)cccc1F` [Example 571], the IC50 was 10 to 50 µM.

The same assay, now with this note: Table 31, compounds made using Schemes 38-45; read-out: IC50 Activity.
Turning to `Cc1c(N)cc(N)cc1-c1ccc2c(CC(=O)O)cn(Cc3csc4ccc(Cl)cc34)c2c1` [Example 628], the IC50 is < 10 µM.

Turning to `Nc1nc(Cl)c(C=O)c(-c2ccc3c(CC(=O)O)cn(Cc4csc5ccc(Cl)cc45)c3c2)n1` [Example 637], the IC50 is < 10 µM.

On to `Nn1cc(-c2ccc3c(CC(=O)O)cn(Cc4csc5ccc(Cl)cc45)c3c2)c(=O)[nH]c1=O` [Example 653], for which the IC50 lay in the range of 10 to 50 µM.

On to `Nn1cc(-c2ccc3c(CC(=O)O)cn(Cc4csc5ccc(Cl)cc45)c3c2)c(=O)n(N)c1=O` [Example 651], for which the IC50 was > 50 µM.

The assay is the same for the next values; noted with them: Table 32, compounds made using Schemes 46-49; read-out: IC50 Activity.
On to `O=C(O)Cc1cn(Cc2csc3ccc(Cl)cc23)c2cc(-c3c[nH]c(=O)[nH]c3=O)ccc12` [Example 662], for which the IC50 was in the range of 10 to 50 µM.

For `CC(C)c1ccc(Cn2c(C#N)c(CC(=O)O)c3ccccc32)cc1` [Example 664], the IC50 is 10 to 50 µM.

Regarding `NC(=O)c1nc(N)sc1-c1ccc2c(CC(=O)O)cn(Cc3csc4ccc(Cl)cc34)c2c1` [Example 655], the IC50 was 10 to 50 µM.

Staying with this assay, now noted: Table 34, compounds made using Schemes 51-52; read-out: IC50 Activity.
`Cc1cc([N+](=O)[O-])ccc1-n1cc(C(NC(=O)c2ccccc2)C(=O)O)c2ccccc21` (stereo not shown) [Example 670]: the IC50 was in the range of 10 to 50 µM.

Turning to `COC(=O)C(=O)c1cn(Cc2csc3ccc(Cl)cc23)c2cc(Br)ccc12` [Example 693], the IC50 was > 50 µM.

Still in this assay, the particulars now being: Table 35, compounds made using Scheme 53; read-out: IC50 Activity.
For the compound `CCOC(=O)Cc1cn(Cc2cccc3sc(Cl)nc23)c2cc(-c3cc(N)cc(N)c3)ccc12` [Example 794], the IC50 was 10 to 50 µM.

On to `CCOC(=O)Cc1cn(Cc2cccc3nc(C)ccc23)c2cc(-c3cc(N)cc(N)c3)ccc12` [Example 791], for which the IC50 lay in the range of 10 to 50 µM.

For `Cc1ccc2c(Cn3cc(CC(=O)O)c4ccc(-c5cc(N)cc(N)c5)cc43)cccc2n1` [Example 704], the IC50 was > 50 µM.

Take `N#Cc1ccc2scc(Cn3cc(CC(=O)O)c4ccc(-c5cc(N)cc(N)c5)cc43)c2c1` [Example 703]: the IC50 is 10 to 50 µM.

Still in this assay, the particulars now being: Table 37, compounds made using Scheme 55; read-out: IC50 Activity.
Take `Cc1cccc(-c2ccc3c(CC(=O)O)cn(Cc4csc5ccc(Cl)cc45)c3c2)c1` [Example 752]: the IC50 lay in the range of 10 to 50 µM.

Turning to `COc1cccc(-c2ccc3c(CC(=O)O)cn(Cc4csc5ccc(Cl)cc45)c3c2)c1` [Example 746], the IC50 was > 50 µM.

These data come from patent US20090047246A1, “NOVEL INHIBITORS OF HEPATITIS C VIRUS REPLICATION” (InterMune, Inc., priority 2007, published 2009).
